One may read the pKa as the negative logarithm of the acid dissociation constant. The bioavailability is the share of a dose that reaches the circulation, judged against a reference dose that is usually intravenous. Broadly, the AUC is concentration integrated over time. As a reminder, the Cmax is the highest concentration seen after dosing.

Each structure is given as a SMILES string. Values after ≈ are worked out from the molar mass of the structure shown.

The text below walks through data of article PMC10574532, “Revisiting Supersaturation of a Biopharmaceutical Classification System IIB Drug: Evaluation via a Multi-Cup Dissolution Approach and Molecular Dynamic Simulation” (Molecules, 2023).

A short description of series [1]: pH-dependent equilibrium solubility of ketoconazole in biorelevant fluids (FaSSIF) with or without precipitation inhibitor. In kind it is physicochemical. The settings on record: modified Henderson-Hasselbalch fit, 37 °C. On the procedure:
Specifically, FaSSIF was prepared with different proportions of 0.2 mol/L disodium hydrogen phosphate (Na2HPO4) solution and 0.1 mol/L citric acid (C6H8O7) solution, with commercial standard FaSSIF powder. […] The final pH of each solution was measured before centrifugation at 10,000× g for 10 min at 37 °C. […] A sample volume of 10 μL was injected and subsequently separated on a Kromasil C18 column (5 μm, 4.6 × 250 mm) maintained at a temperature of 30 °C. The mobile phase consisted of a modified phosphoric acid solution containing 10 mM KH2PO4 in water (pH adjusted to 3.0), along with acetonitrile in a ratio of 50:50 (v/v). The flow rate employed was set at 1 mL/min while detection occurred at a wavelength of 254 nm.

Series [2] in a line: IVIVC prediction based on DGIM in vitro absorption data. The arrangement: species or system Male Sprague Dawley rats. The settings on record: predicted through IVIVC from DGIM. On the procedure:
(§1) The in vitro–in vivo correlation (IVIVC) was performed using Phoenix 8.1 IVIVC Toolkit (Certara, Princeton, NJ, USA). […] Double Weibull Dissolution Model was selected for fitting both dissolution data from the absorptive phase of DGIM and USP II. The absorption data were obtained via deconvolution analysis of the drug plasma concentration–time curves. The reference formulation for deconvolution to estimate oral absorption was based on the in vivo data of the i.v. group. Additionally, both control group and PVPVA group’s in vitro data were used to establish a correlation between dissolved fraction and absorbed fraction, while the HPMC group’s data served as external validation. The maximum number of unit impulse response exponentials defaulted to three. With WinNonlin Generated Initial Parameter and Winnonlin Bounds, the best correlation model was selected according to the lowest AIC. Validation parameters included AUClast calculated with linear trapezoidal method along with linear interpolation averaging as mean values were adopted. The process of prediction followed the same parameters above. The prediction error (PE) was evaluated following the FDA’s guidance.

A further series in a line: In vivo pharmacokinetics. The settings on record: plasma, rat. The arrangement: species or system Male Sprague Dawley rats. On the procedure: The animal study was conducted in accordance with the National Research Council’s Guide for the Care and Use of Laboratory Animals and approved by the Ethics Committee of Chengdu University of Traditional Chinese Medicine (Approval Code: 2021-76). All procedures were performed in compliance with relevant regulations and guidelines. Male Sprague Dawley rats weighing 180–220 g were fasted overnight (12 h) with free access to water, then randomly assigned to 4 groups (n = 6). […] Approximately 50 μL of blood samples were collected into EDTA-K2-treated Eppendorf tubes at time points ranging from 0.083, 0.25, 0.5, 1, 2, 4, and 6 to 10 h after dosing. The blood samples were centrifuged at 2000× g and 4 °C for 10 min, followed by collection and storage of the supernatant plasma at −20 °C until analysis. […] A protein precipitation method was employed to pretreat 10 μL plasma with 430 μL acetonitrile, 50 μL internal standard solution (gefitinib), and 10 μL mobile phase. After centrifugation at 10,000× g for 10 min at 4 °C, the supernatant was injected into the apparatus and then separated by a Thermo Hypersil C18 chromatographic column (3 μm, 2.1 mm × 50 mm) at 40 °C. […] Phoenix 8.1 WinNonlin Toolkit (Certara, Princeton, NJ, USA) was employed to conduct the non-compartment model of pharmacokinetic analysis.

The conditions of series [3]: phosphate buffer ref 19; cited from earlier work.
Series [4] can be described thus: IVIVC prediction based on USP II in vitro absorption data. The settings on record: predicted through IVIVC from USP II. The arrangement: species or system Male Sprague Dawley rats. On the procedure: as §1
The nature of series [5]: Supersaturation-precipitation and absorption in the dynamic gastrointestinal model (DGIM). In kind it is physicochemical. On the procedure:
The DGIM is achieved through a system consisting of 3 dissolution cups, which represent stomach, duodenum, and jejunum, respectively, filled with corresponding biorelevant fluid. N-octanol serves as the absorptive phase. The pumps facilitate fluid transfer, as depicted by arrows in Figure 9. In situ drug concentration is determined using fiber optical probes, and dynamic pH value of the aqueous fluid is monitored by pH electrodes. The parameters of DGIM can be adjusted to meet some special physiological conditions.
In this study, most of the parameters were based on the GIS proposed by Hens et al.. The pH values in the three cups were adjusted to 2.0, 5.9, and 6.1, respectively, to simulate the physiological digestive fluid in the stomach, duodenum, and jejunum of the fasted rats. […] The secretions used were biorelevant fluids that had been concentrated four times and pumped at a rate of 1 mL/min. Considering an average gastric half-emptying time ( th ) of approximately eight minutes, pump A transported gastric fluid into the duodenal cup at this first-order rate. Ensuring that the volume of biorelevant fluid in the duodenal cup was maintained at a constant level of 50 mL, any excess fluid was transported to the jejunal cup through pump B. Therefore, we can represent the rates va for pump A and vb for pump B at time t using following equations:(5) va=ln2×Vg,0×exp−ln2×t/th+1 (6) vb=va+1
The pump rate was regulated by a mono-chip computer, which was programmed to dynamically adjust the rate every second in accordance with first-order kinetics. […] The pumps worked until 40 min because, at that time, the solution in the gastric cup was less than 10 mL. However, the experiment continued for 3 h. The paddles were stirred at a rate of 50 rpm. All the cups were in a water bath at 37 °C.
Fiber optic probes with a 1 mm tip were connected to the instrument and employed for the detection of the 270–275 nm wavelength band. This detection specifically targeted the area under the curve (AUC) of the second derivatized absorbance curves. Calibration was performed using the accumulated addition method. The standard curves encompassed a wide concentration range in the dissolution process while ensuring linearity with an r^2 > 0.999.

The mark [6] stands for this setting: aqueous phase of the duodenal cup.

As for `CC(=O)N1CCN(c2ccc(OCC3COC(Cn4ccnc4)(c4ccc(Cl)cc4Cl)O3)cc2)CC1` (centres unmarked) [ketoconazole, Ketoconazole], in series [1] (FaSSIF (biorelevant fluid), read-out: pKa of the fitted pH-solubility function), the pKa was found to be 6.32. In series [1] (FaSSIF, read-out: CU (concentration of unionized form) of the fitted pH-solubility function), the solubility at 24 h stood at 7.88 µg/mL (≈ 14.8 µM). For the same molecule, the “AUC, Prediction” value is 114,652 h·ng·mL^−1 in series [2] and 108,727 h·ng·mL^−1 in series [4]. Besides, the “Cmax, Prediction” value in series [2] was 45,529 ng·mL^−1; in series [4], 45,702 ng·mL^−1. Further, the bioavailability in the series “In vivo pharmacokinetics” (male, Sprague Dawley, oral 10 mg/kg vs i.v. 2.5 mg/kg, read-out: absolute bioavailability) turned out to be 70%. In addition, in the series “In vivo pharmacokinetics” (male, Sprague Dawley, po, 10 mg/kg, read-out: AUC, Observation), the AUC came to 113 µg·h/mL. In addition, the Cmax in the series “In vivo pharmacokinetics” (male, Sprague Dawley, po, 10 mg/kg, read-out: Cmax, Observation) was determined as 41300 ng/mL. Further, the “AUC, Observation” value in the series “In vivo pharmacokinetics” (oral 10 mg/kg ketoconazole) is recorded as 112,853 h·ng·mL^−1. Also, the “Cmax, Observation” value in “In vivo pharmacokinetics” (oral 10 mg/kg ketoconazole) was 41,300 ng·mL^−1. Besides, the “pKa, reported value” in series [3] was 6.5. Further, the “DSAUC (area under the degree of supersaturation over time curve)” value in series [5] (Duodenal) was determined as 3.715; in series [5] (Jejunal), 5.452. Besides, the major precipitation time in series [5] (setting [6]) was found to be 19 min. For the same molecule, the “maximum concentration of ketoconazole” value in series [5] (setting [6]) amounted to 1049 µg/mL; in series [5] (jejunal aqueous phase), 282 µg/mL.
